Data: publication PMC9032693, “Biological Evaluation of New Thienopyridinium and Thienopyrimidinium Derivatives as Human Choline Kinase Inhibitors” (Pharmaceutics, 2022)

Key:
[1] = target: T1, CKα1 (Homo sapiens, UniProt P35790); experiment: Choline kinase assay ([methyl-14C]choline into PCho, purified enzyme); assay type: biochemical; conditions: for % Inhibition at 10 µM: purified CKα1, inhibitor 10 µM; for % Inhibition at 10 µM / % Inhibition at 30 µM: end-point assay; for % Inhibition at 30 µM: purified CKα1, inhibitor 30 µM
T1 construct: an N-terminally His-tagged truncated form of CKα1 (Δ75–457) was cloned into a pET-28a vector; His tag (N); made in house; host or cells: E. coli BL21 (DE3) Star
T1 sequence (P35790 75-457): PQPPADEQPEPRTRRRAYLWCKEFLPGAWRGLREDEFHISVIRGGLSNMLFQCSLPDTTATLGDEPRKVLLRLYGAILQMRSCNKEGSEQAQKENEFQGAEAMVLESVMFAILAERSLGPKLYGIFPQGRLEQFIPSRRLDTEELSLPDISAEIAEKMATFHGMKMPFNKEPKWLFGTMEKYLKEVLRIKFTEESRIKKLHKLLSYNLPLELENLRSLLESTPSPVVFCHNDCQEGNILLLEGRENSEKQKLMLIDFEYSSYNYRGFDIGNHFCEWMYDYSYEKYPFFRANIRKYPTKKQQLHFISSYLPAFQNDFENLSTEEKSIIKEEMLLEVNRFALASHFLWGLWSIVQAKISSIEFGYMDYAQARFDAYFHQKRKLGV
Protocol: The protein was produced and purified as previously described. Briefly, an N-terminally His-tagged truncated form of CKα1 (Δ75–457) was cloned into a pET-28a vector and expressed at 37 °C in E. coli BL21 (DE3) Star cells using 1 mM isopropyl β-D-1-thiogalactopyranoside (IPTG). After centrifugation, the cellular pellet was resuspended in 50 mM Tris-HCl pH 7.5, 500 mM NaCl, 0.2 mM phenylmethylsulphonyl fluoride (PMSF), DNase, and 0.5 mM β-mercaptoethanol, sonicated and subjected to a two-step purification procedure to isolate the target enzyme. […] Protein elution was completed using buffer A + 400 mM imidazole. A second size-exclusion chromatography step was then carried out to achieve complete purity. To this end, we used a HiPrep 26/60 Sephacryl 100 HR column (GE Healthcare, Little Chalfont, Buckinghamshire, UK) and a 20 mM Tris/HCl pH 7.5, 150 mM NaCl running buffer.
To study the effect of the compounds on CKα, an in vitro enzymatic assay was performed using the purified enzyme as previously reported in [19, 28, 29]. Briefly, the incorporation of ^14C from [methyl-^14C]choline into PCho in either the absence (control) or presence of different inhibitors at varying concentrations was used to determine the CK activity. The reaction mixture included 20 ng of purified CKα1, 10 mM ATP, 10 mM MgCl2, 100 mM Tris-HCl pH 8.5, and increasing concentrations of compounds. The mixture was preincubated at 37 °C for 5 min. Then, [methyl-^14C]choline chloride (1 mM, 4500 dpm/nmol) was added and the reaction was left to proceed for 10 min at 37 °C. The assay was stopped by immersing the reaction tubes in boiling water. PCho was separated by Thin Layer Chromatography using methanol/0.6% NaCl/28% NH4OH in water (50:50:5, v/v/v) as solvent. The radioactivity associated into PCho was determined in a Beckman 6000-TA (Madrid, Spain) liquid scintillation counter. The 50% inhibitory concentrations (IC50 values) were determined from the % enzyme activity at different concentrations of synthetic inhibitors relative to the control by using a sigmoidal dose–response curve (ED50plus v1.0 software).

[2] = test system: HepG2 cells; experiment: Choline uptake assay ([methyl-14C]choline); assay type: cell-based, human; conditions: HepG2, 24 h
Protocol: Choline uptake was assessed as previously reported. Briefly, HepG2 cells (200,000 cells/well) were incubated for 24 h at 37 °C with different concentrations of CKα1 inhibitors. Then, cells were exposed to [methyl-^14C]choline ([…], 31 Ci/mol) for 5 min at 37 °C. The reaction was stopped by two washes with ice-cold PBS containing 580 μM choline. The cells were solubilized in NaOH 0.1 N and the total amount of radiolabel taken up by the cells was measured by liquid scintillation using a Beckman 6000-TA counter (Madrid, Spain).

[3] = test system: A549; experiment: Cell cycle analysis by flow cytometry; assay type: cell-based, human; conditions: A549, 1.0 µM, 48 and 72 h
Protocol: (§1) Three different cell lines (MDA-MB-231, A549, and HeLa) were used to evaluate the effect of compound Ff-35 on the cell cycle. Briefly, cells were treated with the test compound for 48 and 72 h. After this incubation period the cells were trypsinized, centrifuged, and fixed by adding cold ethanol (70% v/v). Cell cycles are then acquired through a cytofluorimeter (Beckman Coulter Cytomics FC500, Milano, Italy) and subsequently analyzed using MultiCycle software (Phoenix Flow Systems, San Diego, CA, USA).

[4] = test system: HeLa; experiment: Cell cycle analysis by flow cytometry; assay type: cell-based, human; conditions: 1.0 µM, 48 and 72 h
Protocol: as §1

[5] = test system: MDA-MB-231; experiment: Cell cycle analysis by flow cytometry; assay type: cell-based, human; conditions: MDA-MB-231, 1.0 µM, 48 and 72 h
Protocol: as §1

[6] = test system: A549; experiment: Apoptosis by annexin-V-FITC/PI flow cytometry; assay type: cell-based, human; conditions: A549, 1 and 5 µM, 72 h
Protocol: (§2) MDA-MB-231, A549, and HeLa cells were treated with compound Ff-35 for 72 h and then stained using a commercial kit (Annexin-V-Fluos, Roche Diagnostics, Milano, Italy) containing Annexin-V conjugated with fluorescein isothiocyanate and Propidium iodide (PI). All the procedures were executed according to manufacturer’s instructions. Apoptotic cells were then analyzed through a cytofluorimeter (Beckman Coulter Cytomics FC500).

[7] = test system: HeLa; experiment: Apoptosis by annexin-V-FITC/PI flow cytometry; assay type: cell-based, human; conditions: 1 and 5 µM, 72 h
Protocol: as §2

[8] = test system: MDA-MB-231; experiment: Apoptosis by annexin-V-FITC/PI flow cytometry; assay type: cell-based, human; conditions: MDA-MB-231, 1 and 5 µM, 72 h
Protocol: as §2

[9] = test system: A549; experiment: Antiproliferative activity, resazurin assay, 72 h; assay type: cell-based, human
Protocol: (§3) Human cervix carcinoma (HeLa), Non-small lung adenocarcinoma (A549), Colon adenocarcinoma (HT29), and human triple negative breast cancer (MDA-MB-231) were cultured in Dulbecco’s modified Eagle’s media (DMEM). B-acute lymphoblastic leukemia (RS4;11 and SEM), T-acute lymphoblastic leukemia (Jurkat), and human promyelocytic cells (HL-60), were cultured in RPMI-1640 medium. Both media were purchased from Gibco, Life Technologies (Milan, Italy) and supplemented with 10% Fetal Bovine Serum (FBS, Invitrogen, Milan, Italy,). Every six months, each cell line was checked for the presence of mycoplasma by RT-PCR.
(§4) Stock solutions (10 mM) of the different compounds were made in DMSO. Cancer cells were seeded in tissue-treated, flat bottom, 384-well plates (Corning) according to their optimal density, (A549 1000 cells/wells; MDA-MB-231, HeLa and HT-29 2000 cells/well and finally Jurkat, HL-60 SEM and RS4;11 20.000 cells/well) in 27 µL of complete medium per well.
(§5) The day after cell seeding and immediately before cell treatment, 10 mM stock solutions of the compounds were pre-diluted to a […] concentration in 250 µL of Hank’s in a 96-well plate (Corning). Subsequent 1:5 dilutions were carried out using a microlab STAR 96-CORE liquid handling system (Hamilton), a robotized liquid handling tool that was employed for all steps, from cell seeding to drug dilution and cell treatment to ensure high reproducibility while reducing time for large screening execution. This pre-dilution step was necessary to avoid DMSO-related cytotoxicity and compound precipitation in the cell culture medium. In every case, DMSO concentration never exceeded 0.1%.
(§6) Positive (Bortezomib 1 µM) and negative (0.1% DMSO) controls were included in all the screened plates to allow for monitoring the Z’ factor throughout the entire screening. Cells were treated with 3 µL of the previously made dilutions; thus, generating a 6-point 5-fold dose–response curve starting from 10 µM. Within a plate, each drug concentration was tested in duplicate in two independent experiments for each compound.
(§7) Treated cells were then placed inside the CO2 incubator for 72 h at 37 °C. Cell viability was assessed by resazurin assay, in which 3 µL of resazurin per well were added using the previously described automated platform. Plates were placed in the incubator at 37 °C for 2 h, and then the fluorescence of each plate was read using a Spark 10 M multimode microplate reader (Tecan Group Ltd., Mannedorf, Switzerland) with 535 nm excitation wavelength and 600 nm emission wavelength.

[10] = test system: HL-60; experiment: Antiproliferative activity, resazurin assay, 72 h; assay type: cell-based, human
Protocol: as §3, §4, §5, §6, §7

[11] = test system: HT29; experiment: Antiproliferative activity, resazurin assay, 72 h; assay type: cell-based, human
Protocol: as §3, §4, §5, §6, §7

[12] = test system: HeLa; experiment: Antiproliferative activity, resazurin assay, 72 h; assay type: cell-based, human
Protocol: as §3, §4, §5, §6, §7

[13] = test system: Jurkat; experiment: Antiproliferative activity, resazurin assay, 72 h; assay type: cell-based, human
Protocol: as §3, §4, §5, §6, §7

[14] = test system: MDA-MB-231; experiment: Antiproliferative activity, resazurin assay, 72 h; assay type: cell-based, human
Protocol: as §3, §4, §5, §6, §7

[15] = test system: RS 4;11; experiment: Antiproliferative activity, resazurin assay, 72 h; assay type: cell-based, human
Protocol: as §3, §4, §5, §6, §7

[16] = test system: SEM cells; experiment: Antiproliferative activity, resazurin assay, 72 h; assay type: cell-based, human
Protocol: as §3, §4, §5, §6, §7

[17] = Solubility as observed in the enzyme inhibition assays; assay type: physicochemical; design: key to solubility (footnote b): -: The compound was not soluble; conditions: for solubility (footnote b): CK inhibition assay at 10 and 30 µM; for solubility (in words): IC50 could not be determined

SMILES	GI50 [9] [nM]	GI50 [10] [nM]	GI50 [11] [nM]	GI50 [12] [nM]	GI50 [13] [µM]	GI50 [14] [nM]	solubility (footnote b) [17]	solubility (in words) [17]	% Inhibition at 10 µM [1] [%]	% Inhibition at 30 µM [1] [%]	% Inhibition Choline Uptake at 0.5 μM [2] [%]	% Inhibition Choline Uptake at 2 μM [2] [%]	GI50 [15] [nM]	GI50 [16] [nM]	other results
[Br-].[Br-].c1cc2c(N3CCCCCC3)nc[n+](Cc3ccc(CCCCc4ccc(C[n+]5cnc(N6CCCCCC6)c6ccsc65)cc4)cc3)c2s1 [Ff-35]	–	–	–	–	–	–	–	–	90.55	97.80	84.99 ± 1.3	96.62 ± 0.316	–	–	% Inhibition Choline Uptake at 0.1 μM ([2]; 0.1 μM): 35.64 ± 0.7%; effect on cell cycle [3]: notable increase in the G1 phase accompanied by a reduction in the S phase; effect on cell cycle [4]: notable increase in the G1 phase accompanied by a reduction in the S phase; effect on cell cycle [5]: notable increase in the G1 phase accompanied by a reduction in the S phase; apoptotic cells [6]: significant increase in apoptotic cells in a concentration-dependent manner; apoptotic cells [7]: significant increase in apoptotic cells in a concentration-dependent manner; apoptotic cells [8]: significant increase in apoptotic cells in a concentration-dependent manner
[Br-].[Br-].c1cc2c(s1)c(N1CCCCCC1)nc[n+]2Cc1ccc(CCc2ccc(C[n+]3cnc(N4CCCCCC4)c4sccc43)cc2)cc1 [Fa-23]	600 ± 60	510 ± 50	1560 ± 200	1170 ± 100	6.15 ± 0.6	1130 ± 200	- ^b	insolubility	–	–	–	–	2080 ± 30	2170 ± 20	–
[Br-].[Br-].c1cc2c(N3CCCCCC3)nc[n+](Cc3ccc(-c4ccc(C[n+]5cnc(N6CCCCCC6)c6ccsc65)cc4)cc3)c2s1 [Fg-18]	210 ± 10	790 ± 20	2320 ± 20	1810 ± 20	7.04 ± 0.8	610 ± 30	- ^b	–	–	–	–	–	2650 ± 40	> 10000	–

Second part, led by results:

GI50 [9] [nM]	GI50 [10] [nM]	GI50 [11] [nM]	GI50 [12] [nM]	GI50 [13] [µM]	GI50 [14] [nM]	solubility (footnote b) [17]	solubility (in words) [17]	SMILES	% Inhibition at 10 µM [1] [%]	% Inhibition at 30 µM [1] [%]	% Inhibition Choline Uptake at 0.5 μM [2] [%]	% Inhibition Choline Uptake at 2 μM [2] [%]	GI50 [15] [nM]	GI50 [16] [nM]	other results
310 ± 40	150 ± 10	1420 ± 100	780 ± 20	4.72 ± 0.6	500 ± 20	- ^b	insolubility	[Br-].[Br-].c1cc2c(N3CCCCCC3)nc[n+](Cc3ccc(CCc4ccc(C[n+]5cnc(N6CCCCCC6)c6ccsc65)cc4)cc3)c2s1 [Fg-19]	–	–	–	–	1510 ± 200	2590 ± 30	–
1430 ± 100	440 ± 20	> 10000	3020 ± 400	6.2 ± 0.9	2260 ± 300	–	–	[Br-].[Br-].c1cc2c(N3CCCCCC3)nc[n+](Cc3ccc(OCCOc4ccc(C[n+]5cnc(N6CCCCCC6)c6ccsc65)cc4)cc3)c2s1 [Ff-36]	84.47	96.07	71.78 ± 0.1	95.32 ± 0.29	2260 ± 300	2540 ± 200	IC50 ([1]; concentration required to inhibit CKα1 enzyme by 50%): 350 ± 50 nM
